Source: patent US20070049564A1 (Wyeth, priority 2005, published 2007)
Converted amounts (≈) assume the structure as drawn. Like-named read-outs stand apart in the source and are kept apart here.

How the values were obtained:
E. faecalis GC 4555 = experiment: MIC, broth microdilution; conditions: Enterococcus faecalis
Procedure: (§1) Antimicrobial susceptibility testing. The in vitro activities of the antibiotics are determined by the broth microdilution method as recommended by the National Committee for Clinical Laboratory Standards (NCCLS) (1). Mueller-Hinton II broth (MHBII)(BBL Cockeysville, Md.) is the medium employed in the testing procedures. Microtiter plates containing serial dilutions of each antimicrobial agent are inoculated with each organism to yield the appropriate density (10^5 CFU/ml) in a 100 μl final volume. The plates are incubated for 18-22 hours at 35° C. in ambient air.
(§2) Representative compounds were first incubated in mouse serum for an hour prior to the in vitro testing against a panel of selected gram-positive and gram-negative bacteria strains. All compounds were also pre-incubated in water for an hour prior to testing as control. Representative compounds of Formula I were incubated in human serum prior to MIC determination.

S. aureus GC 6467 = experiment: MIC, broth microdilution; conditions: Staphylococcus aureus
E. coli GC 2271 = experiment: MIC, broth microdilution; conditions: Escherichia coli
E. coli GC 2233 = experiment: MIC, broth microdilution; conditions: Escherichia coli
S. aureus GC 6469 = experiment: MIC, broth microdilution; conditions: Staphylococcus aureus
E. coli GC 4559 = experiment: MIC, broth microdilution; conditions: Escherichia coli
E. faecalis GC 2265 = experiment: MIC, broth microdilution; conditions: Enterococcus faecalis
E. coli GC 2203 = experiment: MIC, broth microdilution; conditions: Escherichia coli
E. coli GC 2270 = experiment: MIC, broth microdilution; conditions: Escherichia coli
E. coli GC 4560 = experiment: MIC, broth microdilution; conditions: Escherichia coli
S. agalactiae GC 4564 = experiment: MIC, broth microdilution; conditions: Streptococcus agalactiae
S. aureus GC 4536 = experiment: MIC, broth microdilution; conditions: Staphylococcus aureus
E. coli GC 1073 = experiment: MIC, broth microdilution; conditions: Escherichia coli
E. coli GC 2236 = experiment: MIC, broth microdilution; conditions: Escherichia coli
E. coli GC 2235 = experiment: MIC, broth microdilution; conditions: Escherichia coli
Procedure: as §1, §2

Staph. = experiment: Range of MIC for Staph. strains, including MRSA; conditions: Staphylococcus aureus, MRSA
P. aeruginosa GC 2214 = experiment: MIC, broth microdilution; conditions: Pseudomonas aeruginosa
E. faecalis GC 2242 = experiment: MIC, broth microdilution; conditions: Enterococcus faecalis
E. coli GC 6465 = experiment: MIC, broth microdilution; conditions: Escherichia coli
E. coli = experiment: Range of MIC for E. coli strains; conditions: Escherichia coli

Work on CCCCN(CC(=O)Nc1cc(N(C)C)c2c(c1O)C(=O)C1=C(O)[C@]3(O)C(=O)C(C(N)=O)=C(O)[C@@H](N(C)C)[C@@H]3C[C@@H]1C2)C(=O)OCOC(=O)c1cc(C)cc(C)c1 [Example 22, ({[(2-{[(5aR,6aS,7S,10aS)-9-(aminocarbonyl)-4,7-bis(dimethylamino)-1,8,10a,11-tetrahydroxy-10,12-dioxo-5,5a,6,6a,7,10,10a,12-octahydrotetracen-2-yl]amino}-2-oxoethyl)(butyl)amino]carbonyl}oxy)methyl 3,5-dimethylbenzoate] yielded an MIC (E. faecalis GC 4555; GC4555, read-out: MINIMAL INHIBITORY CONCENTRATION MIC, pre-incubated in Mouse Serum) of 2 µg/mL (≈ 2.53 µM), an MIC (E. faecalis GC 4555; GC4555, read-out: MINIMAL INHIBITORY CONCENTRATION MIC, pre-incubated in Water) of 64 µg/mL (≈ 80.8 µM) and an MIC (S. aureus GC 6467; GC6467, read-out: MINIMAL INHIBITORY CONCENTRATION MIC, pre-incubated in Mouse Serum) of 4 µg/mL (≈ 5.05 µM). The MIC (S. aureus GC 6467; GC6467, read-out: MINIMAL INHIBITORY CONCENTRATION MIC, pre-incubated in Water) was > 64 µg/mL, the MIC (E. coli GC 2271; GC2271, read-out: MINIMAL INHIBITORY CONCENTRATION MIC, pre-incubated in Mouse Serum) was 1 µg/mL (≈ 1.26 µM) and the MIC (E. coli GC 2271; GC2271, read-out: MINIMAL INHIBITORY CONCENTRATION MIC, pre-incubated in Water) was > 64 µg/mL. The MIC (E. coli GC 2233; GC2233, read-out: MINIMAL INHIBITORY CONCENTRATION MIC, pre-incubated in Mouse Serum) was 2 µg/mL (≈ 2.53 µM), the MIC (E. coli GC 2233; GC2233, read-out: MINIMAL INHIBITORY CONCENTRATION MIC, pre-incubated in Water) was > 64 µg/mL and the MIC (S. aureus GC 6469; GC6469, read-out: MINIMAL INHIBITORY CONCENTRATION MIC, pre-incubated in Mouse Serum) was 4 µg/mL (≈ 5.05 µM). The MIC (S. aureus GC 6469; GC6469, read-out: MINIMAL INHIBITORY CONCENTRATION MIC, pre-incubated in Water) was 64 µg/mL (≈ 80.8 µM), the MIC (E. coli GC 4559; GC4559, read-out: MINIMAL INHIBITORY CONCENTRATION MIC, pre-incubated in Mouse Serum) was 2 µg/mL (≈ 2.53 µM) and the MIC (E. coli GC 4559; GC4559, read-out: MINIMAL INHIBITORY CONCENTRATION MIC, pre-incubated in Water) was > 64 µg/mL. It also gave an MIC (E. faecalis GC 2265; GC2265, read-out: MINIMAL INHIBITORY CONCENTRATION MIC, pre-incubated in Mouse Serum) of 2 µg/mL (≈ 2.53 µM), an MIC (E. faecalis GC 2265; GC2265, read-out: MINIMAL INHIBITORY CONCENTRATION MIC, pre-incubated in Water) of 64 µg/mL (≈ 80.8 µM) and an MIC (E. coli GC 2203; GC2203, read-out: MINIMAL INHIBITORY CONCENTRATION MIC, pre-incubated in Mouse Serum) of 1 µg/mL (≈ 1.26 µM). For the same molecule, the MIC (E. coli GC 2203; GC2203, read-out: MINIMAL INHIBITORY CONCENTRATION MIC, pre-incubated in Water) was > 64 µg/mL, the MIC (E. coli GC 2270; GC2270, read-out: MINIMAL INHIBITORY CONCENTRATION MIC, pre-incubated in Mouse Serum) was 1 µg/mL (≈ 1.26 µM) and the MIC (E. coli GC 2270; GC2270, read-out: MINIMAL INHIBITORY CONCENTRATION MIC, pre-incubated in Water) was > 64 µg/mL. The MIC (E. coli GC 4560; GC4560, read-out: MINIMAL INHIBITORY CONCENTRATION MIC, pre-incubated in Mouse Serum) was 0.5 µg/mL (≈ 0.631 µM), the MIC (E. coli GC 4560; GC4560, read-out: MINIMAL INHIBITORY CONCENTRATION MIC, pre-incubated in Water) was > 64 µg/mL and the MIC (S. agalactiae GC 4564; GC4564, read-out: MINIMAL INHIBITORY CONCENTRATION MIC, pre-incubated in Mouse Serum) was 1 µg/mL (≈ 1.26 µM). For the same molecule, the MIC (S. agalactiae GC 4564; GC4564, read-out: MINIMAL INHIBITORY CONCENTRATION MIC, pre-incubated in Water) was 8 µg/mL (≈ 10.1 µM), the MIC (S. aureus GC 4536; GC4536, read-out: MINIMAL INHIBITORY CONCENTRATION MIC, pre-incubated in Mouse Serum) was 1 µg/mL (≈ 1.26 µM) and the MIC (S. aureus GC 4536; GC4536, read-out: MINIMAL INHIBITORY CONCENTRATION MIC, pre-incubated in Water) was 2 µg/mL (≈ 2.53 µM). The MIC (E. coli GC 1073; GC1073, read-out: MINIMAL INHIBITORY CONCENTRATION MIC, pre-incubated in Mouse Serum) was 2 µg/mL (≈ 2.53 µM), the MIC (E. coli GC 1073; GC1073, read-out: MINIMAL INHIBITORY CONCENTRATION MIC, pre-incubated in Water) was > 64 µg/mL and the MIC (E. coli GC 2236; GC2236, read-out: MINIMAL INHIBITORY CONCENTRATION MIC, pre-incubated in Mouse Serum) was 2 µg/mL (≈ 2.53 µM). For the same molecule, the MIC (E. coli GC 2236; GC2236, read-out: MINIMAL INHIBITORY CONCENTRATION MIC, pre-incubated in Water) was > 64 µg/mL, the MIC (E. coli GC 2235; GC2235, read-out: MINIMAL INHIBITORY CONCENTRATION MIC, pre-incubated in Mouse Serum) was 1 µg/mL (≈ 1.26 µM) and the MIC (E. coli GC 2235; GC2235, read-out: MINIMAL INHIBITORY CONCENTRATION MIC, pre-incubated in Water) was > 64 µg/mL. The MIC (Staph.; read-out: Minimum inhibitory concentration (MIC), Staph. (mouse serum)) was 0.5 to 4 µg/mL (≈ 0.631 to 5.05 µM), the MIC (Staph.; read-out: Range of MIC, Staph (Mouse Serum)) was 0.5 to 4 µg/mL (≈ 0.631 to 5.05 µM) and the MIC (P. aeruginosa GC 2214; GC2214, read-out: MINIMAL INHIBITORY CONCENTRATION MIC, pre-incubated in Mouse Serum) was > 64 µg/mL. For the same molecule, the MIC (P. aeruginosa GC 2214; GC2214, read-out: MINIMAL INHIBITORY CONCENTRATION MIC, pre-incubated in Water) was > 64 µg/mL, the MIC (E. faecalis GC 2242; GC2242, read-out: MINIMAL INHIBITORY CONCENTRATION MIC, pre-incubated in Mouse Serum) was 2 µg/mL (≈ 2.53 µM) and the MIC (E. faecalis GC 2242; GC2242, read-out: MINIMAL INHIBITORY CONCENTRATION MIC, pre-incubated in Water) was 32 µg/mL (≈ 40.4 µM). For the same molecule, the MIC (E. coli GC 6465; GC6465, read-out: MINIMAL INHIBITORY CONCENTRATION MIC, pre-incubated in Mouse Serum) was 8 µg/mL (≈ 10.1 µM), the MIC (E. coli GC 6465; GC6465, read-out: MINIMAL INHIBITORY CONCENTRATION MIC, pre-incubated in Water) was > 64 µg/mL and the MIC (E. coli; 20 h, read-out: Range of MIC, E. coli (Mouse Serum)) was 1 to 8 µg/mL (≈ 1.26 to 10.1 µM). The MIC (E. coli; read-out: Minimum inhibitory concentration (MIC), E. coli (mouse serum)) was 1 to 8 µg/mL (≈ 1.26 to 10.1 µM), the MIC (E. coli; read-out: Minimum inhibitory concentration (MIC), E. coli (water)) was > 64 µg/mL and the MIC (E. coli; read-out: Range of MIC, E. coli (Water)) was > 64 µg/mL.
